# Reference: ChEMBL document CHEMBL1144726, “"Virtual fragment linking": an approach to identify potent binders from low affinity fragment hits” (J Med Chem, 2008)
# Target: Nitric oxide synthase, inducible (Homo sapiens, UniProt P35228)
# Sequence (P35228 whole entry): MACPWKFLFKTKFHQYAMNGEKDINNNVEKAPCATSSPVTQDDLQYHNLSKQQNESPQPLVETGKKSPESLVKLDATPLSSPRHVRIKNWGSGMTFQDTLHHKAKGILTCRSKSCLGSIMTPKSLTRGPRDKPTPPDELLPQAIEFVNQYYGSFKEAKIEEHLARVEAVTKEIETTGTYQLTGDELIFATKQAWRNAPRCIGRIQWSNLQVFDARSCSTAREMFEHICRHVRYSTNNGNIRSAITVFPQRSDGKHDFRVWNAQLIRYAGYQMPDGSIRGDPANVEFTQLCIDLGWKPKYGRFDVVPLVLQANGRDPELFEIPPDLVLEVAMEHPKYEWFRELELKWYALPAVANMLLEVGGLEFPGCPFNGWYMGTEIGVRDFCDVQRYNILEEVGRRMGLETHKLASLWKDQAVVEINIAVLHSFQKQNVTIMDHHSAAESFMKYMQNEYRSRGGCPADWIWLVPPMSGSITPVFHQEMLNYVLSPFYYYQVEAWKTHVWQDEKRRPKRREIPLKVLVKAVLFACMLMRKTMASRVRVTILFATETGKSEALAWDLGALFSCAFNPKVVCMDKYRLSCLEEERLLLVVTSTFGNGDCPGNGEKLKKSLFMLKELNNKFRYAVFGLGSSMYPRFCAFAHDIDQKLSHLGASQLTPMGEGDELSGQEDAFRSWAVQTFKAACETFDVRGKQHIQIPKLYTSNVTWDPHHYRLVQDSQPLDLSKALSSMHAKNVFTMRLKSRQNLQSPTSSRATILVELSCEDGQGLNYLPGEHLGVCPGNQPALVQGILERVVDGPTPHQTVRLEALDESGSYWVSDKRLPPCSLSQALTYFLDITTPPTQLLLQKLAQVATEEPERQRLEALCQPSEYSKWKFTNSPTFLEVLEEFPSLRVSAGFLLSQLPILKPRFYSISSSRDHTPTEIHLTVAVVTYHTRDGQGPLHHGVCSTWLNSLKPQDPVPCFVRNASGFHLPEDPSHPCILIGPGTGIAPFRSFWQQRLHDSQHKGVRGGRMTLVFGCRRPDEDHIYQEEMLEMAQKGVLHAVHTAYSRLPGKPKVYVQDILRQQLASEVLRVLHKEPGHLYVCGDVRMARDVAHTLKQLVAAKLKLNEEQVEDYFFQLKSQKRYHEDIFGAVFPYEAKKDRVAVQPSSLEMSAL
row,IC50 [nM],SMILES
1,1200,Cc1cccc2c1C(N)=NC(C1CCC1)N2 (stereo not given)

# Target: Estrogen receptor beta (Homo sapiens, UniProt Q92731)
# Sequence (Q92731 whole entry): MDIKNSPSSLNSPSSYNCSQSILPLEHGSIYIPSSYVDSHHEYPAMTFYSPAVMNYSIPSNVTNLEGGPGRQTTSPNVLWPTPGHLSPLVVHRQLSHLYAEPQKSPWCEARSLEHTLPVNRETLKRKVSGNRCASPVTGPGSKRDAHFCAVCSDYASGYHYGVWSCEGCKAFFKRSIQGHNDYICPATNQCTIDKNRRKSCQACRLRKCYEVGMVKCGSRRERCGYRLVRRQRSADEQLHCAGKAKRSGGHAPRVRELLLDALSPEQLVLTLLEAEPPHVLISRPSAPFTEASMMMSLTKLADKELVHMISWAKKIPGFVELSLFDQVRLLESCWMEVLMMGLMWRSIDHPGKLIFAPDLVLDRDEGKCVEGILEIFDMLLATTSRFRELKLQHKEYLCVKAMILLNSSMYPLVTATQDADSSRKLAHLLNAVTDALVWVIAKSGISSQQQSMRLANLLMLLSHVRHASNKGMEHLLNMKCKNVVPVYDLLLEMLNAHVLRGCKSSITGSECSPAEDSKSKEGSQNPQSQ
row,SMILES,IC50 [nM]
1,Oc1ccc(-n2nc3ccccc3c2Cl)cc1,1100
2,Cc1cc(O)ccc1-c1ccccc1,4000
3,Cc1cc(-c2cccc(Cl)c2)ccc1O,2100
4,N#Cc1ccccc1-c1ccc(O)cc1,1800
5,Oc1ccc2nn(-c3ccccc3)cc2c1,10000
6,COc1ccc(-c2ccc(O)cc2)cc1,2400

# Further lines, results first:
row,IC50 [nM],SMILES
1,3100,Oc1ccc(-c2ccccc2)cc1Cl
2,2900,Nc1ccc(-c2ccc(O)cc2)cc1Cl
3,1200,Oc1ccc(-c2cccc(F)c2)cc1
